Reference: ChEMBL document CHEMBL1201862, “PubChem BioAssay data set” (2004)
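Tested at 5 concentrations; 48 h exposure; 96-well plates; endpoints linearly interpolated, else capped at highest concentration. At the GI50, growth is halved.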 Active and inactive are the calls of the source. Cut-off read from the data, not from the text of the source: active = GI50 up to about 1.1 µM and inactive = higher.

Columns and labels:
Assay in all cases: DTP human tumour cell line panel, 48 h
OVCAR-5 = test system: OVCAR-5
NCI-H226 = test system: NCI-H226
SF-295 = test system: SF-295
ACHN = test system: ACHN
DLD-1 = test system: DLD-1
HCC 2998 = test system: HCC 2998
HOP-92 = test system: HOP-92
SW-620 = test system: SW-620
NCI-H23 = test system: NCI-H23
OVCAR-4 = test system: OVCAR-4
M14 = test system: M14
HOP-62 = test system: HOP-62
786-0 = test system: 786-0
Malme-3M = test system: Malme-3M
SNB-19 = test system: SNB-19
CAKI-1 = test system: CAKI-1
DMS-273 = test system: DMS-273
UACC-62 = test system: UACC-62
XF498 = test system: XF498
SNB-75 = test system: SNB-75
NCI-H460 = test system: NCI-H460
A549 = test system: A549
DMS-114 = test system: DMS-114
LOX IMVI = test system: LOX IMVI
SF-268 = test system: SF-268
IGROV-1 = test system: IGROV-1
EKVX = test system: EKVX
SNB-78 = test system: SNB-78
U-251 = test system: U-251
MOLT-4 = test system: MOLT-4
HL-60 = test system: HL-60
UO-31 = test system: UO-31
A498 = test system: A498
OVCAR-8 = test system: OVCAR-8
SK-OV-3 = test system: SK-OV-3
COLO 205 = test system: COLO 205
KM-20L2 = test system: KM-20L2
SR = test system: SR
K562 = test system: K562
HCT-116 = test system: HCT-116
HOP-18 = test system: HOP-18
CCRF-CEM = test system: CCRF-CEM
SK-MEL-2 = test system: SK-MEL-2
KM12 = test system: KM12
M19-MEL = test system: M19-MEL
RPMI-8226 = test system: RPMI-8226
HT-29 = test system: HT-29
SK-MEL-28 = test system: SK-MEL-28
SN12C = test system: SN12C
SK-MEL-5 = test system: SK-MEL-5
NCI-H522 = test system: NCI-H522
TK-10 = test system: TK-10
HCT-15 = test system: HCT-15
RXF 393 = test system: RXF 393
SF-539 = test system: SF-539
OVCAR-3 = test system: OVCAR-3
UACC-257 = test system: UACC-257
LXFL 529 = test system: LXFL 529

## CC(=O)/C=C/c1ccc(C2CC(C)=Nc3c(ccc4c3C(=O)c3ccccc3C4=O)N2)cc1 (configuration not stated)
OVCAR-5
  GI50: > 86.5 µM (inactive)
NCI-H226
  GI50: 32.2 µM (inactive)
SF-295
  GI50: > 100 µM (inactive)
ACHN
  GI50: 19 µM (inactive)
DLD-1
  GI50: 24.7 µM (inactive)
HCC 2998
  GI50: > 100 µM (inactive)
HOP-92
  GI50: 28.2 µM (inactive)
SW-620
  GI50: 38.5 µM (inactive)
NCI-H23
  GI50: > 67.3 µM (inactive)
OVCAR-4
  GI50: > 85.9 µM (inactive)
M14
  GI50: 77.3 µM (inactive)
HOP-62
  GI50: 58.1 µM (inactive)
786-0
  GI50: 54.6 µM (inactive)
Malme-3M
  GI50: 89.1 µM (inactive)
SNB-19
  GI50: > 100 µM (inactive)
CAKI-1
  GI50: 6.98 µM (inactive)
DMS-273
  GI50: 66.1 µM (inactive)
UACC-62
  GI50: 59.7 µM (inactive)
XF498
  GI50: > 100 µM (inactive)
SNB-75
  GI50: 14.8 µM (inactive)
NCI-H460
  GI50: 30 µM (inactive)
A549
  GI50: > 40.1 µM (inactive)
DMS-114
  GI50: 34.9 µM (inactive)
LOX IMVI
  GI50: 8.83 µM (inactive)
SF-268
  GI50: > 71 µM (inactive)
IGROV-1
  GI50: 9.12 µM (inactive)
EKVX
  GI50: 27.3 µM (inactive)
SNB-78
  GI50: > 100 µM (inactive)
U-251
  GI50: 59.7 µM (inactive)
MOLT-4
  GI50: > 100 µM (inactive)
HL-60
  GI50: 0.944 µM (active)
UO-31
  GI50: 4.88 µM (inactive)
A498
  GI50: 33.3 µM (inactive)
OVCAR-8
  GI50: 28.2 µM (inactive)
SK-OV-3
  GI50: 15.9 µM (inactive)
COLO 205
  GI50: 60.7 µM (inactive)
KM-20L2
  GI50: > 100 µM (inactive)
SR
  GI50: > 100 µM (inactive)
K562
  GI50: > 57.5 µM (inactive)
HCT-116
  GI50: 33 µM (inactive)
HOP-18
  GI50: > 80.9 µM (inactive)
CCRF-CEM
  GI50: 1.28 µM (inactive)
SK-MEL-2
  GI50: > 29.6 µM (inactive)
KM12
  GI50: 3.37 µM (inactive)
M19-MEL
  GI50: > 62.5 µM (inactive)
RPMI-8226
  GI50: > 52.4 µM (inactive)
HT-29
  GI50: > 100 µM (inactive)
SK-MEL-28
  GI50: > 100 µM (inactive)
SN12C
  GI50: > 81.5 µM (inactive)
SK-MEL-5
  GI50: 86.5 µM (inactive)
NCI-H522
  GI50: > 20 µM (inactive)
TK-10
  GI50: 8.89 µM (inactive)
HCT-15
  GI50: 27.2 µM
RXF 393
  GI50: 92 µM (inactive)
SF-539
  GI50: 63.8 µM (inactive)
OVCAR-3
  GI50: > 93.8 µM (inactive)

## Cc1ccccc1NC(=O)C(=O)c1c(O)c2ccc(O)cc2oc1=O
NCI-H226
  GI50: > 100 µM (inactive)
UACC-257
  GI50: > 100 µM (inactive)
ACHN
  GI50: > 100 µM (inactive)
DLD-1
  GI50: > 100 µM (inactive)
HOP-92
  GI50: > 100 µM (inactive)
SW-620
  GI50: > 100 µM (inactive)
NCI-H23
  GI50: > 100 µM (inactive)
OVCAR-4
  GI50: > 100 µM (inactive)
M14
  GI50: > 100 µM (inactive)
HOP-62
  GI50: > 100 µM (inactive)
786-0
  GI50: > 100 µM (inactive)
Malme-3M
  GI50: > 100 µM (inactive)
SNB-19
  GI50: > 100 µM (inactive)
CAKI-1
  GI50: > 100 µM (inactive)
DMS-273
  GI50: > 100 µM (inactive)
UACC-62
  GI50: > 100 µM (inactive)
XF498
  GI50: > 100 µM (inactive)
SNB-75
  GI50: > 100 µM (inactive)
NCI-H460
  GI50: > 100 µM (inactive)
A549
  GI50: > 100 µM (inactive)
DMS-114
  GI50: > 100 µM (inactive)
LOX IMVI
  GI50: > 100 µM (inactive)
SF-268
  GI50: > 100 µM (inactive)
IGROV-1
  GI50: > 100 µM (inactive)
U-251
  GI50: > 100 µM (inactive)
MOLT-4
  GI50: > 100 µM (inactive)
HL-60
  GI50: > 100 µM (inactive)
UO-31
  GI50: > 100 µM (inactive)
A498
  GI50: > 100 µM (inactive)
OVCAR-8
  GI50: > 100 µM (inactive)
SK-OV-3
  GI50: > 100 µM (inactive)
COLO 205
  GI50: > 100 µM (inactive)
KM-20L2
  GI50: > 100 µM (inactive)
K562
  GI50: > 100 µM (inactive)
HCT-116
  GI50: > 100 µM (inactive)
HOP-18
  GI50: > 100 µM (inactive)
LXFL 529
  GI50: > 100 µM (inactive)
CCRF-CEM
  GI50: > 100 µM (inactive)
SK-MEL-2
  GI50: > 100 µM (inactive)
KM12
  GI50: > 100 µM (inactive)
M19-MEL
  GI50: > 100 µM (inactive)
RPMI-8226
  GI50: > 100 µM (inactive)
HT-29
  GI50: > 100 µM (inactive)
SK-MEL-28
  GI50: > 100 µM (inactive)
SN12C
  GI50: > 100 µM (inactive)
SK-MEL-5
  GI50: > 100 µM (inactive)
NCI-H522
  GI50: > 100 µM (inactive)
TK-10
  GI50: > 100 µM (inactive)
HCT-15
  GI50: > 100 µM
RXF 393
  GI50: > 100 µM (inactive)
OVCAR-3
  GI50: > 100 µM (inactive)
